The text below walks through data of article PMC8318231, “Rate-of-Kill (RoK) assays to triage large compound sets for Chagas disease drug discovery: Application to GSK Chagas Box” (PLoS Neglected Tropical Diseases, 2021).

A value given as a limit tells only on which side of the number the result lay.

Series [1] relates to T. cruzi Tulahuen trypomastigotes. In words: T. cruzi trypomastigote assay (Cell Titer-Glo viability, ATP luminescence). The format is cell-based, Trypanosoma cruzi. Conditions: for Trypomastigotes pIC50 48 hours: 48 hours incubation; for Trypomastigotes pIC50 48 hours / Trypomastigotes pIC50 72 hours: pIC50 = -log10 IC50 in molar units; for Trypomastigotes pIC50 72 hours: 72 hours incubation; for 48 pIC50 / 72 pIC50: trypomastigote assay; for 48 pIC50: 48 h; for 72 pIC50: 72 h. In short, it runs like this: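 Tulahuen trypomastigotes from infected LLC-MK2 culture supernatants (days 5–8) plated at 5 × 10^4 per well in DMEM/2% FBS with compound at 5 μM single-shot final or in dose response. Viability by CellTiter-Glo ATP luminescence after 10 min at room temperature, normalised to no-cell (100%) and DMSO (0%) controls.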
On the technique in general: In ATP-based viability assays light output follows the ATP content of the culture.

The subject of series [2] is T. cruzi intracellular amastigotes in H9c2 cells. Briefly: Rate-of-Kill (RoK) high-content imaging assay, amastigotes per cell (AM/CELL) and curve descriptors. Conditions: maximum percentage of parasite burden reduction reached by any concentration, 24 hours. It counts as cell-based, Trypanosoma cruzi. On the procedure:
(§1) For this high-content intracellular imaging assay, H9c2 cells were seeded in 225 cm^2 T- FLASK in DMEM with 10% FBS for 4 h to allow attachment. T. cruzi trypomastigotes, collected at days 5 to 8 after infection from LLC-MK2 parasite infected cultures, were allowed to swim out for 4 h at 37°C from a centrifuged pellet (1,600 x g / 10 min). Trypomastigotes were then collected and counted in a CASY Cell Counter using the 60 μm capillary. Trypomastigotes, in supplemented DMEM, were added to H9c2 cultures in a multiplicity of infection (MOI) of 8 and incubated for 18 h. Cells were washed once with PBS before incubation of the infected H9c2 monolayer with trypsin (Life-Technologies) to detach cells from the flask. Cells were counted in a CASY Cell Counter, using the 150 μm capillary, and their density set at 5 x 10^4 cells/mL in supplemented DMEM. Infected H9c2 were dispensed into 384-well plates at 50 μL per well using a Multidrop Combi dispenser. Control wells used to determine a 100% parasitic growth (full 6th column of each plate) were left untreated, whereas not infected cells were added in the control wells used as 0% parasite growth (or 100% parasite growth inhibition; full 18th column of each plate). The four plates corresponding to each RoK assay were predispensed for the same mother plate. […] Cultures were then fixed and stained with 50 μL per well of a PBS solution containing 4% formaldehyde and 2 μM DRAQ5 DNA dye (BioStatus, UK). Then plates were read in a PerkinElmer Opera Phenix using a 20x objective, 3 fields per well. DRAQ5 signal was detected using 640 nm excitation laser and a 690/50 nm emission detection filter. Automated image analysis was performed with a script developed on Acapella High Content Imaging and Analysis Software (PerkinElmer). Two outputs were provided for each sample well: (1) number of host cells nuclei to determine drug-related cytotoxicity (aka H9c2) and (2) number of amastigotes per cell as infection level measurement (aka AM/CELL). Each output is plotted as a time course for each compound at every concentration. This assay was adapted from Alonso-Padilla et al. and Peña et al..
To identify and classify the different compounds, the number of amastigotes per cell (AM/CELL) raw data obtained in rate of kill assay are normalised using the average of C1 (infected cells) at time 4 hours as 0% effect and the average of C2 (non-infected cells) for each time as 100% effect, according to the following Eq 1: %CIDALRESPONSE=100*[Avg_C14h-RawData]/[Avg_C14h-Avg_C2] (1)
(§2) • ME (Maximum Effect) is the maximum percentage of parasite burden reduction reached by any compound concentration. Compounds that decrease the initial parasite load will show a positive value of ME, whereas compounds that allow the progression of infection will render a negative ME value. […] It is calculated for the MCC50 (t50%_MCC50) and for the maximum concentration (t50%_Cmax). […] The value of this parameter is not either interpolated or extrapolated, and it refers to the first experimental time-course point at which a 50% of effect is reached or exceeded. • tlag defines the time elapsed for one particular concentration to reduce parasite burden between two consecutive points at any moment of the time course. It is calculated for the MCC50 (tlag_MCC50) and for the maximum concentration (tlag_Cmax). The value of this parameter is not either interpolated or extrapolated, and it refers to the first experimental time-course point of a positive slope in the normalised plot (i.e. %Cidal_Response). • Cmin_Tox (Minimal CytoToxic Concentration) is the lowest compound concentration that is reducing the number of host mammalian cells below 50% of initial cell density. Cytotoxic compounds may mislead a bona fide antiparasitic action.

The subject of series [3] is TcCYP51. Conditions: formerly reported; cited from earlier work.
The test system of series [4] is H9c2 (rat cardiomyocytes). In words: RoK assay, number of host cells nuclei (drug-related cytotoxicity, H9c2 output, Cmin_Tox). Particulars: H9c2 host cells. On the procedure:
as §1, with “Trypomastigotes, in supplemented DMEM, were added to H9c2 cultures in a multiplicity of infection (MOI) of 8 and incubated for 18 h.” left out
as §2, with “action. Therefore, this descriptor is used to flag this kind of compounds and warn about the genuine meaning of the rest of descriptors.” for “action.”

For `CNc1cc(Cn2c(C(=O)c3cc(C)cc(Cl)c3)c(C(C)C)c(=O)[nH]c2=O)ccn1` [TCMDC-143637], in series [1], the “Trypomastigotes pIC50 48 hours” value is listed as under 4.3 and the “Trypomastigotes pIC50 72 hours” value is given as under 4.3. Besides, the “72 pIC50 (trypomastigotes, raw data of Fig 1D)” value in series [1] (72 hours, plotted values, censored values given without sign) was under 4.3. Moreover, in series [1] (figure 1A), the “48 pIC50” value is recorded as under 4.3 and the “72 pIC50” value is recorded as under 4.3. Further, the “72 pIC50” value in series [1] (figure 1B) is given as under 4.3. Also, in series [2], the “ME 24h (maximum effect at 24 hours, intracellular amastigotes)” value turned out to be 23.6593%. The “CYP51 pIC50” value in series [3] is 7.5.

As to `Cc1ccc(S(=O)(=O)Nc2ccc(CN3CCN(C(=O)c4cccc(C#N)c4)CC3)cc2)cc1.O=C(O)C(F)(F)F` [TCMDC-143497], in series [1], the “Trypomastigotes pIC50 48 hours” value is under 4.3 and the “Trypomastigotes pIC50 72 hours” value turned out to be 4.9. For the same molecule, the “Cmin_Tox” value in series [4] is listed as over 50 µM. In addition, the “CYP51 pIC50” value in series [3] is recorded as under 4.

Take `O=C(NCc1ccc(-n2cccc2)cc1)c1nc(Cn2ccc([N+](=O)[O-])n2)no1` [TCMDC-143103]: in series [1], the “Trypomastigotes pIC50 48 hours” value is 6 and the “Trypomastigotes pIC50 72 hours” value amounted to 5.9. Besides, the “CYP51 pIC50” value in series [3] was under 4.

Turning to `CC(Cn1ccnc1)NC(=O)C=Cc1ccc(Cl)cc1` (centres unmarked) [TCMDC-143423], in series [1], the “Trypomastigotes pIC50 48 hours” value was under 4.3 and the “Trypomastigotes pIC50 72 hours” value is recorded as under 4.3. Moreover, in series [1] (figure 1A), the “48 pIC50” value is recorded as under 4.3 and the “72 pIC50” value is under 4.3. In series [1] (figure 1B), the “72 pIC50” value is given as under 4.3. Also, in series [3], the “CYP51 pIC50” value was 6.8.

For `Cc1cccc(NS(=O)(=O)c2cnc3sc(C)cn3c2=O)c1` [TCMDC-143372], in series [1], the “Trypomastigotes pIC50 48 hours” value is under 4.3 and the “Trypomastigotes pIC50 72 hours” value was under 4.3. Further, in series [1] (figure 1A), the “48 pIC50” value is recorded as under 4.3 and the “72 pIC50” value was under 4.3. Besides, the “72 pIC50” value in series [1] (figure 1B) is recorded as under 4.3. Also, the “CYP51 pIC50” value in series [3] is on record as under 4.

In the case of `CN(C)c1ncc(-c2cncn2CCOc2ccc(Cl)cc2)cn1` [TCMDC-143415], in series [1], the “Trypomastigotes pIC50 48 hours” value is on record as 4.5 and the “Trypomastigotes pIC50 72 hours” value is 4.5. In addition, in series [1] (figure 1A), the “48 pIC50” value turned out to be 4.5 and the “72 pIC50” value was found to be 4.5. For the same molecule, the “72 pIC50” value in series [1] (figure 1B) was 4.5. Besides, the “CYP51 pIC50” value in series [3] was 7.3.

Consider `COc1ccc(C)cc1-c1csc(NC(=O)C(C)n2ccnc2)n1` (centres unmarked) [TCMDC-143430], for which, in series [1], the “Trypomastigotes pIC50 48 hours” value was under 4.3 and the “Trypomastigotes pIC50 72 hours” value is under 4.3. Moreover, in series [1] (figure 1A), the “48 pIC50” value is under 4.3 and the “72 pIC50” value is listed as under 4.3. In series [1] (figure 1B), the “72 pIC50” value is given as under 4.3. Also, the “CYP51 pIC50” value in series [3] is 7.4.

Consider `CC(C(=O)Nc1ccccc1F)N(C)CC(=O)Nc1cccc2ccccc12` (centres unmarked) [TCMDC-143293], for which the “Trypomastigotes pIC50 72 hours” value in series [1] is under 4.3. Besides, the “CYP51 pIC50” value in series [3] is 4.8.

Turning to `Cc1cc(N(C)C)nc2ccc(Cc3cnc(N)nc3N)cc12` [TCMDC-143611], in series [1], the “Trypomastigotes pIC50 48 hours” value is recorded as 4.6 and the “Trypomastigotes pIC50 72 hours” value is given as 5.9. The “CYP51 pIC50” value in series [3] is listed as under 4.

In the case of `Cc1ccc2sc(NC(=O)Cn3cnc([N+](=O)[O-])n3)nc2c1` [TCMDC-143284], in series [1], the “Trypomastigotes pIC50 48 hours” value was determined as 5.6 and the “Trypomastigotes pIC50 72 hours” value came to 5.3. Further, the “CYP51 pIC50” value in series [3] is under 4.

With `CC1=NN(C(=O)CCn2cnc([N+](=O)[O-])n2)C(O)(C(F)(F)F)C1` (centres unmarked) [TCMDC-143157], in series [1], the “Trypomastigotes pIC50 48 hours” value was under 4.3 and the “Trypomastigotes pIC50 72 hours” value is reported as under 4.3. Also, in series [1] (figure 1A), the “48 pIC50” value is under 4.3 and the “72 pIC50” value is listed as under 4.3. Further, in series [1] (figure 1B), the “72 pIC50” value is given as under 4.3. The “CYP51 pIC50” value in series [3] is reported as under 4.

Turning to `COc1cccc(-c2cc(C(F)(F)F)nc(-n3ccc([N+](=O)[O-])n3)n2)c1` [TCMDC-143105], in series [1], the “Trypomastigotes pIC50 48 hours” value is listed as 5.8 and the “Trypomastigotes pIC50 72 hours” value is on record as 6. In series [3], the “CYP51 pIC50” value is reported as under 4.
